# Like-named read-outs stand apart in the source and are kept apart here.
# What was measured:
# [1] = biological target: GDP-bound HRAS wild-type protein (Homo sapiens, UniProt P01112); assay: Binding to HRAS by surface plasmon resonance (SPR), Single Cycle Kinetics; details: for HRAS/KRAS (ratio of KD value for HRAS to KD value for KRAS) / ratio of the KD value with respect to GDP-bound HRAS wild-type protein to the KD value with respect to KRAS: SPR; for HRAS/KRAS (ratio of KD value for HRAS to KD value for KRAS): GDP-bound HRAS wild-type protein vs GDP-bound KRAS wild-type protein; for HRAS/KRAS (ratio of KD value with respect to GDP-bound HRAS wild-type protein to KD value with respect to KRAS): SPR KD ratio HRAS/KRAS, class symbols
# [2] = biological target: GDP-bound KRAS wild-type protein (Homo sapiens, UniProt P01116); assay: Binding to KRAS by surface plasmon resonance (SPR), Single Cycle Kinetics
# [3] = system: human lung cancer strain NCI-H441;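 also: cell proliferation inhibition after four days measured by CellTiter-Glo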
# [4] = biological target: GDP-bound NRAS wild-type protein (Homo sapiens, UniProt P01111); assay: Binding to NRAS by surface plasmon resonance (SPR), Single Cycle Kinetics; details: for NRAS/KRAS (ratio of KD value for NRAS to KD value for KRAS) / ratio of the KD value with respect to GDP-bound NRAS wild-type protein to the KD value with respect to KRAS: SPR; for NRAS/KRAS (ratio of KD value for NRAS to KD value for KRAS): GDP-bound NRAS wild-type protein vs GDP-bound KRAS wild-type protein; for NRAS/KRAS (ratio of KD value with respect to GDP-bound NRAS wild-type protein to KD value with respect to KRAS): SPR KD ratio NRAS/KRAS, class symbols
# [5] = SPR, Single Cycle Kinetics, GDP-bound KRAS wild-type protein, read-out: KRAS KD
# [6] = read-out: NCI-H441 cell proliferation inhibitory activity, 50% proliferation inhibitory concentration (IC50 value), NCI-H441, four days, CellTiter-Glo
# [7] = SPR Single Cycle Kinetics, GDP-bound KRAS wild-type protein, 1:1 binding model, read-out: KRAS KD
# [8] = SPR, Single Cycle Kinetics, 1:1 binding model, GDP-bound KRAS wild-type protein, read-out: KRAS KD
# Sequence of GDP-bound HRAS wild-type protein (P01112 whole entry): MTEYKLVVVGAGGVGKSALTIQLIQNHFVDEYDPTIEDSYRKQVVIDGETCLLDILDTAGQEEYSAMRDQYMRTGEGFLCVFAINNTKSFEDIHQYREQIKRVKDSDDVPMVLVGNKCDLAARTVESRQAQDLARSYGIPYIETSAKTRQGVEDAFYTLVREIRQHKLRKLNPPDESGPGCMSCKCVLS
# Sequence of GDP-bound KRAS wild-type protein (P01116 whole entry): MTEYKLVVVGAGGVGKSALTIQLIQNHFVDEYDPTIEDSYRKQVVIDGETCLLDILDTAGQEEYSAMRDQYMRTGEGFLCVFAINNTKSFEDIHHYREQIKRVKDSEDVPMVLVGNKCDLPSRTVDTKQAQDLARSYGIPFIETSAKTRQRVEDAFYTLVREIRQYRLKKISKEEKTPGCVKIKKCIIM
# Sequence of GDP-bound NRAS wild-type protein (P01111 whole entry): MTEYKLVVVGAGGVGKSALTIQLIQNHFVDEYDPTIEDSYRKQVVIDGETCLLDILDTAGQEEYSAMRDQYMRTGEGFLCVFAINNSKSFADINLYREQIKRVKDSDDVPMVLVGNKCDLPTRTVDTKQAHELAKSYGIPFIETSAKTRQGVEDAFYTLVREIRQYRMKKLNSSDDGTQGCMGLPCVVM
SMILES,"Kd [2, 5]",IC50 [3],HRAS/KRAS (ratio of KD value for HRAS to KD value for KRAS) [1],NRAS/KRAS (ratio of KD value for NRAS to KD value for KRAS) [4],other results
CCO[C@@H]1C[C@H]2C(=O)NC3(CC(C)(C)C3)C(=O)N(C)[C@@H](C3CCCC3)C(=O)N(C)[C@H](C(=O)N(C)C)CC(=O)N(C)[C@H]3CCCCCc4ccc(cc4)C[C@@H](C(=O)N(C)CC(=O)N[C@@H](CCc4ccc(C(F)(F)F)c(OC)c4)C(=O)N2C1)N1CC/C=C\C[C@@H](C1=O)N(C)C(=O)CN(C1CC1)C(=O)[C@H]([C@@H](C)CC)NC3=O [PP3075],0.076 nM,,A (a compound having 10 or more and less than 20 is denoted as A),A (a compound having 10 or more and less than 20 is denoted as A),"ratio of the KD value with respect to GDP-bound HRAS wild-type protein to the KD value with respect to KRAS [1]: A (a compound having 10 or more and less than 20 is denoted as A); IC50 [3, 6]: 1.1 nM; ratio of the KD value with respect to GDP-bound NRAS wild-type protein to the KD value with respect to KRAS [4]: A (a compound having 10 or more and less than 20 is denoted as A)"
CC[C@H](C)[C@@H]1NC(=O)[C@H](CC(C)C)N(C)C(=O)C[C@@H](C(=O)N(C)C)N(C)C(=O)[C@H](C2CCCC2)N(C)C(=O)C2(CC(C)(C)C2)NC(=O)[C@@H]2C[C@@H](F)CN2C(=O)[C@H](CCc2cc(F)c(C(F)(F)F)c(F)c2)NC(=O)CN(C)C(=O)[C@H](Cc2ccc(C(F)(F)F)cc2)N2CC/C=C\C[C@@H](C2=O)N(C)C(=O)CN(C)C1=O [PP1566],,2.3 nM,,,"HRAS/KRAS (ratio of KD value for HRAS to KD value for KRAS) ([1]; KD ratio class): A (a compound having 10 or more and less than 20 is denoted as A); Kd [2, 8]: 0.026 nM; NRAS/KRAS (ratio of KD value for NRAS to KD value for KRAS) ([4]; KD ratio class): A (a compound having 10 or more and less than 20 is denoted as A)"
CCC(CC)[C@H]1C(=O)N(C)[C@H](C(=O)N(C)C)CC(=O)N(C)[C@@H](COC)C(=O)N[C@@H]([C@@H](C)CC)C(=O)N(C2CC2)CC(=O)N(C)[C@H]2C/C=C\CCN(C2=O)[C@@H](CC2CCC(F)(F)CC2)C(=O)N(C)CC(=O)N[C@@H](CCc2cc(F)c(C(F)(F)F)c(F)c2)C(=O)N2C[C@H](OC3CCC3)C[C@H]2C(=O)NC2(CC(C)(C)C2)C(=O)N1C [PP2615],,88.7 nM,,,"HRAS/KRAS (ratio of KD value with respect to GDP-bound HRAS wild-type protein to KD value with respect to KRAS) [1]: A (a compound having 10 or more and less than 20 is denoted as A); Kd [2, 7]: 2 nM; NRAS/KRAS (ratio of KD value with respect to GDP-bound NRAS wild-type protein to KD value with respect to KRAS) [4]: A (a compound having 10 or more and less than 20 is denoted as A)"
CCCO[C@@H]1C[C@H]2C(=O)NC3(CC(C)(C)C3)C(=O)N(C)[C@@H](C3CCCC3)C(=O)N(C)[C@H](C(=O)N(C)C)CC(=O)N(C)[C@H]3CCCCc4ccc(cc4)C[C@@H](C(=O)N(C)CC(=O)N[C@@H](CCc4ccc(Cl)c(Cl)c4)C(=O)N2C1)N1CC/C=C\C[C@@H](C1=O)N(C)C(=O)CN(C)C(=O)[C@H]([C@@H](C)CC)NC3=O [PP3092],0.09 nM,,A (a compound having 10 or more and less than 20 is denoted as A),A (a compound having 10 or more and less than 20 is denoted as A),"ratio of the KD value with respect to GDP-bound HRAS wild-type protein to the KD value with respect to KRAS [1]: A (a compound having 10 or more and less than 20 is denoted as A); IC50 [3, 6]: 7.4 nM; ratio of the KD value with respect to GDP-bound NRAS wild-type protein to the KD value with respect to KRAS [4]: A (a compound having 10 or more and less than 20 is denoted as A)"
CCO[C@@H]1C[C@H]2C(=O)NC3(CCC3)C(=O)N(C)[C@@H](C3CCCC3)C(=O)N(C)[C@H](C(=O)N3CCCC3)CC(=O)N(C)[C@@H](CC3CC3)C(=O)N[C@@H]([C@@H](C)CC)C(=O)N(C)CC(=O)N(C)[C@H]3C/C=C\CCN(C3=O)[C@@H](Cc3ccc(C(F)(F)F)cc3)C(=O)N(C)CC(=O)N[C@@H](CCc3cc(F)c(C(F)(F)F)c(F)c3)C(=O)N2C1 [PP1296],,14.7 nM,,,"HRAS/KRAS (ratio of KD value for HRAS to KD value for KRAS) ([1]; KD ratio class): A (a compound having 10 or more and less than 20 is denoted as A); Kd [2, 8]: 0.12 nM; NRAS/KRAS (ratio of KD value for NRAS to KD value for KRAS) ([4]; KD ratio class): AA (a compound having 20 or more is denoted as AA)"

# Further lines, with some results ahead:
"Kd [2, 5]",IC50 [3],SMILES,HRAS/KRAS (ratio of KD value for HRAS to KD value for KRAS) [1],NRAS/KRAS (ratio of KD value for NRAS to KD value for KRAS) [4],other results
,51 nM,CCC[C@H]1C(=O)N[C@@H]([C@@H](C)CC)C(=O)N(C2CC2)CC(=O)N(C)[C@H]2C/C=C\CCN(C2=O)[C@@H](Cc2ccc(C)cc2)C(=O)N(C)CC(=O)N[C@@H](CCc2ccc(Cl)c(Cl)c2)C(=O)N2C[C@H](OCC)C[C@H]2C(=O)NC2(CC(C)(C)C2)C(=O)N(C)[C@@H](CC(C)(C)C)C(=O)N(C)[C@H](C(=O)N(C)C)CC(=O)N1C [PP2726],,,"HRAS/KRAS (ratio of KD value with respect to GDP-bound HRAS wild-type protein to KD value with respect to KRAS) [1]: A (a compound having 10 or more and less than 20 is denoted as A); Kd [2, 7]: 1.1 nM; NRAS/KRAS (ratio of KD value with respect to GDP-bound NRAS wild-type protein to KD value with respect to KRAS) [4]: AA (a compound having 20 or more is denoted as AA)"
0.17 nM,10.3 nM,CC[C@H](C)[C@@H]1NC(=O)[C@H](C(C)C)N(C)C(=O)C[C@@H](C(=O)N(C)CC)N(C)C(=O)[C@H](C2CCCC2)N(C)C(=O)C2(CCC2)NC(=O)[C@@H]2C[C@H](C)CN2C(=O)[C@H](CCc2cc(F)c(C(F)(F)F)c(F)c2)NC(=O)CN(C)C(=O)[C@H](Cc2ccc(C(F)(F)F)cc2)N2CC/C=C\C[C@@H](C2=O)N(C)C(=O)CN(C)C1=O [PP2078],A (a compound having 10 or more and less than 20 is denoted as A),AA (a compound having 20 or more is denoted as AA),
0.09 nM,9.2 nM,CCCOC[C@H]1C(=O)N[C@@H]([C@@H](C)CC)C(=O)N(C)CC(=O)N(C)[C@H]2C/C=C\CCN(C2=O)[C@@H](Cc2ccc(C)cc2)C(=O)N(C)CC(=O)N[C@@H](CCc2ccc(C(F)(F)F)c(Cl)c2)C(=O)N2C[C@@H](C)C[C@H]2C(=O)NC2(CC(C)(C)C2)C(=O)N(C)[C@@H](C2CCCC2)C(=O)N(C)[C@H](C(=O)N(C)C)CC(=O)N1C [PP2453],A (a compound having 10 or more and less than 20 is denoted as A),A (a compound having 10 or more and less than 20 is denoted as A),
0.056 nM,10.2 nM,"CC[C@H](C)[C@@H]1NC(=O)[C@H](CC)N(C)C(=O)C[C@@H](C(=O)N(C)C)N(C)C(=O)[C@H](C2CCCC2)N(C)C(=O)C2(CCC2)NC(=O)[C@@H]2CC(F)(F)CN2C(=O)[C@H](CCc2cc(F)c(C(F)(F)F)c(F)c2)NC(=O)CN(C)C(=O)[C@H](Cc2ccc(C(F)(F)F)cc2)N2CC/C=C\C[C@@H](C2=O)N(C)C(=O)CN(C)C1=O [PP1129, (2S,8S,14S,20S,23S,27S,30S,36S,38Z)-20-cyclopentyl-8-[2-[3,5-difluoro-4-(trifluoromethyl)phenyl]ethyl]-27-ethyl-12,12-difluoro-N,N,4,19,22,26,32,35-octamethyl-30-[(1S)-1-methylpropyl]-3,6,9,15,18,21,25,28,31,34,42-undecaoxo-2-[[4-(trifluoromethyl)phenyl]methyl]spiro[1,4,7,10,16,19,22,26,29,32,35-undecazatricyclo[34.5.1.0^10,14]dotetracont-38-ene-17,1′-cyclobutane]-23-carboxamide]",B (a compound having 3 or more and less than 10 is denoted as B),A (a compound having 10 or more and less than 20 is denoted as A),
,30.5 nM,CCC[C@H]1C(=O)N[C@H]([C@@H](C)CC)C(=O)N2C[C@@H](OC)C[C@H]2C(=O)N(C)[C@H]2C/C=C\CCN(C2=O)[C@@H](Cc2ccc(C)cc2)C(=O)N(C)CC(=O)N[C@@H](CCc2ccc(C(F)(F)F)c(Cl)c2)C(=O)N2C[C@H](OCC)C[C@H]2C(=O)NC2(CCC2)C(=O)N(C)[C@@H](C2CCCC2)C(=O)N(C)[C@H](C(=O)N(C)C)CC(=O)N1C (stereo in doubt) [PP2552],,,"HRAS/KRAS (ratio of KD value with respect to GDP-bound HRAS wild-type protein to KD value with respect to KRAS) [1]: B (a compound having 3 or more and less than 10 is denoted as B); Kd [2, 7]: 0.28 nM; NRAS/KRAS (ratio of KD value with respect to GDP-bound NRAS wild-type protein to KD value with respect to KRAS) [4]: A (a compound having 10 or more and less than 20 is denoted as A)"
870 nM,,CC[C@H](C)[C@@H]1NC(=O)[C@H](CC(C)C)N(C)C(=O)CSC[C@H](C(=O)N(C)C)N(C)C(=O)[C@H](C2CCCC2)N(C)C(=O)C2(CCCC2)NC(=O)[C@@H]2CCCN2C(=O)[C@@H](CCc2cc(F)c(C(F)(F)F)c(F)c2)NC(=O)CN(C)C(=O)[C@H](Cc2ccc(C(F)(F)F)cc2)N2CC=CC[C@@H](C2=O)N(C)C(=O)CN(C)C1=O [PP3108],B (a compound having 3 or more and less than 10 is denoted as B),C (A compound having a KD ratio of 0.1 or more and less than 3 is denoted as C),"ratio of the KD value with respect to GDP-bound HRAS wild-type protein to the KD value with respect to KRAS [1]: B (a compound having 3 or more and less than 10 is denoted as B); Kd ([2]; SPR, Single Cycle Kinetics, 1:1 binding model, read-out: KD value with respect to GDP-bound KRAS wild-type protein): 870 nM; IC50 [3, 6]: 9250 nM; ratio of the KD value with respect to GDP-bound NRAS wild-type protein to the KD value with respect to KRAS [4]: C (A compound having a KD ratio of 0.1 or more and less than 3 is denoted as C)"
